Assay results taken from patent US20250230165A1, “HETEROCYCLIC COMPOUNDS FOR USE IN THE TREATMENT OF CANCER” (ARTIOS PHARMA LIMITED, priority 2021, published 2025).

biological target: T1, Human Polθ polymerase domain (aa1820-2590) (Homo sapiens, UniProt O75417); assay: Polθ Polymerase Domain Kinact/KI Assay (PicoGreen); type: biochemical; settings: 0.8 nM Polθ, 100 nM DNA substrate, kobs vs [I] fit for 2-step covalent inhibitor
T1 construct: Human Polθ polymerase domain (aa1820-2590) was expressed in E. coli; made in house; host or cells: E. coli
T1 sequence (O75417 1820-2590): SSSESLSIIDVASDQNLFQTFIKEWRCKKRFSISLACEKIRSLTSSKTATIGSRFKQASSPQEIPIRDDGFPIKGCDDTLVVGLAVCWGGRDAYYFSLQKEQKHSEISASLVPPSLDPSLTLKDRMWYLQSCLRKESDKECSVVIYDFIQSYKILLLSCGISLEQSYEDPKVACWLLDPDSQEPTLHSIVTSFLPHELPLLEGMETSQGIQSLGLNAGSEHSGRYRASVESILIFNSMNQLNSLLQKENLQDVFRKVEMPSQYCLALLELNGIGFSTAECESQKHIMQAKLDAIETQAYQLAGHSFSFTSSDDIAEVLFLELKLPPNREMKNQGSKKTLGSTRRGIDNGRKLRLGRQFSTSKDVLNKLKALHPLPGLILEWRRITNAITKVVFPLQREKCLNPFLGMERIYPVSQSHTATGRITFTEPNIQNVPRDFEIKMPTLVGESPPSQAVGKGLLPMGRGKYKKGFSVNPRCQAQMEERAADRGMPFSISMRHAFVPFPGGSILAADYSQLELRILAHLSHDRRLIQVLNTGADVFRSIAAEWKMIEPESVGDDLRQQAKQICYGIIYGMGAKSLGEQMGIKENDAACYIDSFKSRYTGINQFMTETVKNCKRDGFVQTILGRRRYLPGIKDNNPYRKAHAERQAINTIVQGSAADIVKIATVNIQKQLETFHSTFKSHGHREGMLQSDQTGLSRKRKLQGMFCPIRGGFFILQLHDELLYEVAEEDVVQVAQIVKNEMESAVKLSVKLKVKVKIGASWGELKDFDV
Outline: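 Covalent inhibitors were tested against E. coli-expressed enzyme (0.8 nM final) with 100 nM annealed DNA substrate and […] in Tris pH 7.5 buffer, 1% DMSO. Reactions were EDTA-quenched over a 0–60 min time course and product DNA detected by PicoGreen fluorescence.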

Structure (SMILES) | Kinact/Kl [µM⁻¹ s⁻¹]
C=CC(=O)N1CC2CCC(C1)N2CCN1C[C@H]2CC(=O)N(c3cc(C(F)(F)F)cc(C)n3)[C@@H]2C(=O)N(C)c2cccc(C)c21 [Example 262, (3aR,11aS)-5-(2-(3-acryloyl-3,8-diazabicyclo[3.2.1]octan-8-yl)ethyl)-6,10-dimethyl-1-(6-methyl-4-(trifluoromethyl)pyridin-2-yl)-1,3a,4,5,10,11a-hexahydro-2H-benzo[b]pyrrolo[2,3-f][1,4]diazocine-2,11(3H)-dione] | 0.71
C=CC(=O)N1CC(c2nc(CN3C[C@H]4CC(=O)N(c5cc(C(F)(F)F)cc(C)n5)[C@@H]4C(=O)N(C)c4cccc(F)c43)nn2C)C1 [Example 100, (3aR,11aS)-5-((5-(1-acryloylazetidin-3-yl)-1-methyl-1H-1,2,4-triazol-3-yl)methyl)-6-fluoro-10-methyl-1-(6-methyl-4-(trifluoromethyl)pyridin-2-yl)-1,3a,4,5,10,11a-hexahydro-2H-benzo[b]pyrrolo[2,3-f][1,4]diazocine-2,11(3H)-dione] | 0.10
Cc1cc(C(F)(F)F)cc(N2C(=O)C[C@@H]3CN(Cc4ccn(C5CN(C(=O)/C=C/CN(C)C)C5)n4)c4c(F)cccc4N(C)C(=O)[C@H]32)n1 [Example 145, (3aR, 11aS)-5-((1-(1-((E)-4-(dimethylamino)but-2-enoyl)azetidin-3-yl)-1H-pyrazol-3-yl)methyl)-6-fluoro-10-methyl-1-(6-methyl-4-(trifluoromethyl)pyridin-2-yl)-1,3a,4,5,10,11a-hexahydro-2H-benzo[b]pyrrolo[2,3-f][1,4]diazocine-2,11(3H)-dione] | 1.34
C=CC(=O)N1Cc2ccc(CN3C[C@H]4CC(=O)N(c5cc(C(F)(F)F)cc(C)n5)[C@@H]4C(=O)N(C)c4cccc(C)c43)nc2[C@H]1CC#N (racemic) [Example 318a, 2-((R/S)-6-acryloyl-2-(((3aR,11aS)-6,10-dimethyl-1-(6-meth-yl-4-(trifluorometh-yl)pyridin-2-yl)-2,11-dioxo-1,2,3,3a, 4,10,11,11a-octa-hydro-5H-benzo[b]pyrrolo[2,3-f][1,4]diazocin-5-yl)meth-yl)-6,7-dihydro-5H-pyrrolo[3,4-b]pyr-idin-7-yl)acetonitrile] | 1.90
C=C(CO)C(=O)N1CCC(CCCN2C[C@H]3CC(=O)N(c4cc(C(F)(F)F)cc(C)n4)[C@@H]3C(=O)N(C)c3cccc(Cl)c32)CC1 [Example 168, (3aR,11aS)-6-chloro-5-(3-(1-(2-(hydroxymethyl)acryloyl)piperidin-4-yl)propyl)-10-methyl-1-(6-methyl-4-(trifluoromethyl)pyridin-2-yl)-1,3a,4,5,10,11a-hexahydro-2H-benzo[b]pyrrolo[2,3-f][1,4]diazocine-2,11(3H)-dione] | 1.97
C=CC(=O)N1C[C@@H](F)[C@@H](n2cc(CN3C[C@H]4CC(=O)N(c5cc(C(F)(F)F)cc(C)n5)[C@@H]4C(=O)N(C)c4cccc(C)c43)cn2)C1 (single isomer, unassigned) [Example 325d] | 1.77
C=CC(=O)N1CC(n2ccc(CN3C[C@H]4CC(=O)N(c5cc(C(F)(F)F)cc(C)n5)[C@@H]4C(=O)N(C)c4cccc(F)c43)n2)C1 [Example 120, (3aR,11aS)-5-((1-(1-acryloylazetidin-3-yl)-1H-pyrazol-3-yl)methyl)-6-fluoro-10-methyl-1-(6-methyl-4-(trifluoromethyl)pyridin-2-yl)-1,3a,4,5,10,11a-hexahydro-2H-benzo[b]pyrrolo[2,3-f][1,4]diazocine-2,11(3H)-dione] | 0.89
C=CC(=O)N1CC(n2cnc(CN3C[C@H]4CC(=O)N(c5cc(C(F)(F)F)cc(C)n5)[C@@H]4C(=O)N(C)c4cccc(Cl)c43)n2)C1 [Example 42, (3aR,11aS)-5-((1-(1-acryloylazetidin-3-yl)-1H-1,2,4-triazol-3-yl)methyl)-6-chloro-10-methyl-1-(6-methyl-4-(trifluoromethyl)pyridin-2-yl)-1,3a,4,5,10,11a-hexahydro-2H-benzo[b]pyrrolo[2,3-f][1,4]diazocine-2,11(3H)-dione] | 0.79
C=CC(=O)N1CCC[C@H]1c1ccc(CN2C[C@H]3CC(=O)N(c4cc(C(F)(F)F)cc(C)n4)[C@@H]3C(=O)N(C)c3cccc(F)c32)cc1 (racemic) [Example 141b, (3aR,11aS)-5-(4-((S/R)-1-acryloylpyrrolidin-2-yl)benzyl)-6-fluoro-10-methyl-1-(6-methyl-4-(trifluoromethyl)pyridin-2-yl)-1,3a,4,5,10,11a-hexahydro-2H-benzo[b]pyrrolo[2,3-f][1,4]diazocine-2,11(3H)-dione] | 0.10

The next lines start with the values.

Kinact/Kl [µM⁻¹ s⁻¹] | Structure (SMILES)
0.47 | C=CC(=O)N1CCOC[C@@H]1c1ccc(CN2C[C@H]3CC(=O)N(c4cc(C(F)(F)F)cc(C)n4)[C@@H]3C(=O)N(C)c3cccc(C)c32)cn1 (racemic) [Example 324b, (3aR,11aS)-5-((6-((S/R)-4-acryloyl-morpholin-3-yl)pyr-idin-3-yl)methyl)-6,10-dimethyl-1-(6-methyl-4-(trifluoro-methyl)pyridin-2-yl)-1,3a,4,5,10,11a-hexahydro-2H-benzo[b]pyrrolo [2,3-f][1,4]diazo-cine-2,11(3H)-dione]
3.64 | C=C(CN(C)C)C(=O)N1CC(CCN2C[C@H]3CC(=O)N(c4cc(C(F)(F)F)cc(C)n4)[C@@H]3C(=O)N(C)c3cccc(Cl)c32)C1 [Example 298, (3aR,11aS)-6-chloro-5-(2-(1-(2-((dimethylamino)methyl)acryloyl)azetidin-3-yl)ethyl)-10-methyl-1-(6-methyl-4-(trifluoromethyl)pyridin-2-yl)-1,3a,4,5,10,11a-hexahydro-2H-benzo[b]pyrrolo[2,3-f][1,4]diazocine-2,11(3H)-dione]
1.75 | C=CC(=O)N1CCn2cc(CN3C[C@H]4CC(=O)N(c5cc(C(F)(F)F)cc(C)n5)[C@@H]4C(=O)N(C)c4cccc(Cl)c43)nc2C1C (single isomer, unassigned) [Example 142a]
0.23 | C=CC(=O)N1CC(N2CC[C@H](CN3C[C@H]4CC(=O)N(c5cc(C(F)(F)F)cc(C)n5)[C@@H]4C(=O)N(C)c4cccc(Cl)c43)[C@H](C#N)C2)C1 (single isomer, unassigned) [Example 227a]
2.00 | C=CC(=O)N1Cc2nc(CN3C[C@H]4CC(=O)N(c5cc(C(F)(F)F)cc(C)n5)[C@@H]4C(=O)Nc4cccc(Cl)c43)cn2C[C@@H]1C (racemic) [Example 144b, (3aR,11aS)-5-(((S/R)-7-acryloyl-6-methyl-5,6,7,8-tetrahydroimidazo[1,2-a]pyrazin-2-yl)methyl)-6-chloro-1-(6-methyl-4-(trifluoromethyl)pyridin-2-yl)-1,3a,4,5,10,11a-hexahydro-2H-benzo[b]pyrrolo[2,3-f][1,4]diazocine-2,11(3H)-dione]
1.81 | C=CC(=O)N1CC(N2CCC(CN3C[C@H]4CC(=O)N(c5cc(C(F)(F)F)cc(C)n5)[C@@H]4C(=O)N(C)c4cccc(F)c43)CC2)C1 [Example 212, (3aR,11aS)-5-((1-(1-acryloylazetidin-3-yl)piperidin-4-yl)methyl)-6-fluoro-10-methyl-1-(6-methyl-4-(trifluoromethyl)pyridin-2-yl)-1,3a,4,5,10,11a-hexahydro-2H-benzo[b]pyrrolo [2,3-f][1,4] diazocine-2,11 (3H)-dione]
